Here are results for 33 compounds from patent US10329289B2, “6,7-dihydro-5H-pyrrolo[3,4-B]pyridin-5-one allosteric modulators of the M4 muscarinic acetylcholine receptor” (Merck Sharp & Dohme Corp., priority 2015, dated 2019).

The target in this test is T1, human M4 muscarinic acetylcholine receptor (Homo sapiens, UniProt P08173).
T1 construct: expressed in transfected cells; host or cells: CHO-K1
T1 sequence (P08173 1-479): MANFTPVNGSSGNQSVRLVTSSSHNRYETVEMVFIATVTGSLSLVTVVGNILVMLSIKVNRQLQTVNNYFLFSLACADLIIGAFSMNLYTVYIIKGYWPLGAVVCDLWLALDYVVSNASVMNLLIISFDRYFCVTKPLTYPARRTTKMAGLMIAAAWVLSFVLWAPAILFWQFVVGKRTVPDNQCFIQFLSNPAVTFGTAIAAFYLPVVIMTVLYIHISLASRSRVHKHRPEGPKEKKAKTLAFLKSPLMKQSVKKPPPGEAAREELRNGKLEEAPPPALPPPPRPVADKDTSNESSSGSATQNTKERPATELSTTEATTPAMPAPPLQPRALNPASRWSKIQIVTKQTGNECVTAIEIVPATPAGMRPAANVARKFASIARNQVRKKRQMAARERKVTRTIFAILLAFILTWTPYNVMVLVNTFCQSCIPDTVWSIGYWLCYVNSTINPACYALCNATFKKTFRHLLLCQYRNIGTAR
Briefly: human FLIPR-based M4 PAM assay (Ca2+ mobilization, CHO-K1 cells with human M4 receptor and Gαqi5). It counts as cell-based. Particulars: acetylcholine at 20% of maximum response, read-out: M4 PAM IP. Summed up: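 Calcium-mobilization (FLIPR) readout in dye-loaded CHO-K1 cells co-expressing human M4 receptor and Gαqi5. Potentiation measured against acetylcholine at a concentration giving 20% of maximal response, with an optional 70% addition; the reported value is the curve inflection point from a 4-parameter logistic fit.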
(Calcium flux is commonly read through the fluorescence of an indicator in the cells.)
For the compound `Cc1cc2c(nc1N1CC[C@H](Oc3cccc(C#N)c3)[C@@H](O)C1)CNC2=O` [Example 43B, 3-(((3S,4S)-3-hydroxy-1-(3-methyl-5-oxo-6,7-dihydro-5H-pyrrolo[3,4-b]pyridin-2-yl)piperidin-4-yl)oxy)benzonitrile], the EC50 is 367 nM.
On to `Cc1cc2c(nc1N1CCC(Oc3ccc4c(c3)CCC4)CC1)CNC2=O` [Example 44, 2-(4-((2,3-dihydro-1H-inden-5-yl)oxy)piperidin-1-yl)-3-methyl-6,7-dihydro-5H-pyrrolo[3,4-b]pyridin-5-one], for which the EC50 amounted to 130 nM.
Take `Cc1cc2c(nc1N1CC[C@@H](Oc3cccc(C#N)c3)[C@@H](F)C1)CN(C)C2=O` [Example 45, 3-(((3S,4R)-1-(3,6-dimethyl-5-oxo-6,7-dihydro-5H-pyrrolo[3,4-b]pyridin-2-yl)-3-fluoropiperidin-4-yl)oxy)benzonitrile]: the EC50 amounted to 53 nM.
To `Cc1cc2c(nc1N1CC[C@@H](Oc3ccc4c(c3)COC4)[C@@H](F)C1)CN(C)C2=O` [Example 46, 2-((3S,4R)-4-((1,3-dihydro-2-benzofuran-5-yl)oxy)-3-fluoropiperidin-1-yl)-3,6-dimethyl-6,7-dihydro-5H-pyrrolo[3,4-b]pyridin-5-one] belongs 32 nM; to `COc1ccc(OC2CCN(c3nc4c(cc3C)C(=O)NC4)CC2)cc1` [Example 47, 2-(4-(4-methoxyphenoxy)piperidin-1-yl)-3-methyl-6,7-dihydro-5H-pyrrolo[3,4-b]pyridin-5-one], 41 nM; to `Cc1cc2c(nc1N1CCC(Oc3cccc(S(C)(=O)=O)c3)CC1)CNC2=O` [Example 47A, 3-methyl-2-(4-(3-(methylsulfonyl)phenoxy)piperidin-1-yl)-6,7-dihydro-5H-pyrrolo[3,4-b]pyridin-5-one], 287 nM.
Take `Cc1cc2c(nc1N1CCC(Oc3cnc4c(c3)COC4)CC1)CNC2=O` [Example 48, 2-(4-((5,7-dihydrofuro[3,4-b]pyridin-3-yl)oxy)piperidin-1-yl)-3-methyl-6,7-dihydro-5H-pyrrolo[3,4-b]pyridin-5-one]: the EC50 was found to be 61 nM.
Regarding `Cc1cc2c(nc1N1CC[C@@H](Oc3cnc4c(c3)COC4)[C@H](F)C1)CNC2=O` [Example 48A, 2-((3R,4R)-4-((5,7-dihydrofuro[3,4-b]pyridin-3-yl)oxy)-3-fluoropiperidin-1-yl)-3-methyl-6,7-dihydro-5H-pyrrolo[3,4-b]pyridin-5-one], the EC50 was determined as 67 nM.
For the compound `Cc1cc2c(nc1N1CCC(Oc3cnc4c(c3)COC4)CC1)CN(C)C2=O` [Example 49, 2-(4-((5,7-dihydrofuro[3,4-b]pyridin-3-yl)oxy)piperidin-1-yl)-3,6-dimethyl-6,7-dihydro-5H-pyrrolo[3,4-b]pyridin-5-one], the EC50 is 94 nM.
For `Cc1cc2c(nc1N1CCC(Oc3cncc(C#N)c3)CC1)CNC2=O` [Example 50, 5-((1-(3-methyl-5-oxo-6,7-dihydro-5H-pyrrolo[3,4-b]pyridin-2-yl)piperidin-4-yl)oxy)nicotinonitrile] the value was 657 nM.
`COc1cccc(OC2CCN(c3nc4c(cc3C)C(=O)NC4)CC2)c1` [Example 51, 2-(4-(3-methoxyphenoxy)piperidin-1-yl)-3-methyl-6,7-dihydro-5H-pyrrolo[3,4-b]pyridin-5-one]: the EC50 was 51 nM.
As to `Cc1cc2c(nc1N1CCC(Oc3cnc4c(c3)COCC4)CC1)CNC2=O` [Example 52, 2-(4-((7,8-dihydro-5H-pyrano[4,3-b]pyridin-3-yl)oxy)piperidin-1-yl)-3-methyl-6,7-dihydro-5H-pyrrolo[3,4-b]pyridin-5-one], the EC50 worked out at 238 nM.
On to `Cc1cc2c(nc1N1CCC(Oc3cnc4c(c3)COCC4)CC1)CN(C)C2=O` [Example 53, 2-(4-((7,8-dihydro-5H-pyrano[4,3-b]pyridin-3-yl)oxy)piperidin-1-yl)-3,6-dimethyl-6,7-dihydro-5H-pyrrolo[3,4-b]pyridin-5-one], for which the EC50 was determined as 449 nM.
Take `CCOCCOC1CCN(c2nc3c(cc2C)C(=O)NC3)CC1` [Example 54, 2-(4-(2-ethoxyethoxy)piper-idin-1-yl)-3-methyl-6,7-dihydro-5H-pyrrolo[3,4-b]pyridin-5-one]: the EC50 was determined as 8760 nM.
On to `CCOC1CCN(c2nc3c(cc2C)C(=O)NC3)CC1` [Example 55, 2-(4-ethoxypiperidin-1-yl)-3-methyl-6,7-dihydro-5H-pyrrolo[3,4-b]pyridin-5-one], for which the EC50 amounted to 1120 nM.
On to `COCCOC1CCN(c2nc3c(cc2C)C(=O)NC3)CC1` [Example 56, 2-(4-(2-methoxyethoxy)piperidin-1-yl)-3-methyl-6,7-dihydro-5H-pyrrolo[3,4-b]pyridin-5-one], for which the EC50 is 11200 nM.
For the compound `COCc1cccc(OC2CCN(c3nc4c(cc3C)C(=O)NC4)CC2)c1` [Example 57, 2-(4-(3-(methoxymethyl)phenoxy)piperidin-1-yl)-3-methyl-6,7-dihydro-5H-pyrrolo[3,4-b]pyridin-5-one], the EC50 was 61 nM.
To `COCCOCc1cccc(OC2CCN(c3nc4c(cc3C)C(=O)NC4)CC2)c1` [Example 58, 2-(4-(3-((2-methoxyethoxy)meth-yl)phenoxy)piperi-din-1-yl)-3-methyl-6,7-dihydro-5H-pyrrolo[3,4-b]pyridin-5-one] belongs 192 nM.
Consider `Cc1cc2c(nc1N1CCC(Oc3cnc4c(c3)CCC4)CC1)CNC2=O` [Example 59, 2-(4-((6,7-dihydro-5H-cyclopenta[b]pyridin-3-yl)oxy)piperidin-1-yl)-3-methyl-6,7-dihydro-5H-pyrrolo[3,4-b]pyridin-5-one], for which the EC50 was 123 nM.
With `COCCOc1ccc(O[C@@H]2CCN(c3nc4c(cc3C)C(=O)NC4)C[C@H]2F)cn1` [Example 60, 2-((3R,4R)-3-fluoro-4-((6-(2-methoxyethoxy)pyridin-3-yl)oxy)piperidin-1-yl)-3-methyl-6,7-dihydro-5H-pyrrolo[3,4-b]pyridin-5-one], the EC50 turned out to be 207 nM.
With `Cc1cc2c(nc1N1CCC(Oc3ccc(OC(C)C)nc3)CC1)CNC2=O` [Example 62, 2-(4-((6-isopropoxypyridin-3-yl)oxy)piperidin-1-yl)-3-methyl-6,7-dihydro-5H-pyrrolo[3,4-b]pyridin-5-one], the EC50 is 55 nM.
As to `Cc1cc2c(nc1N1CCC(OCc3ccccc3)CC1)CNC2=O` [Example 63, 2-(4-(benzyloxy)piperidin-1-yl)-3-methyl-6,7-dihydro-5H-pyrrolo[3,4-b]pyridin-5-one], the EC50 is 145 nM.
For `Cc1cc2c(nc1N1CCC(OCC3(C)CC3(F)F)CC1)CNC2=O` (stereo not drawn) [Example 64, 2-(4-((2,2-difluoro-1-methylcyclopropyl)methoxy)piperidin-1-yl)-3-methyl-6,7-dihydro-5H-pyrrolo[3,4-b]pyridin-5-one] the value was 206 nM; for `Cc1cc2c(nc1N1CCC(OCC3(F)CC3)CC1)CNC2=O` [Example 64A, 2-(4-((1-fluorocyclopropyl)methoxy)piperidin-1-yl)-3-methyl-6,7-dihydro-5H-pyrrolo[3,4-b]pyridin-5-one], 192 nM.
To `Cc1cc2c(nc1N1CC[C@@H](Oc3cnc4c(c3)COC4)[C@@H](F)C1)CNC2=O` [Example 65, 2-((3S,4R)-4-((5,7-dihydrofuro[3,4-b]pyridin-3-yl)oxy)-3-fluoropiperidin-1-yl)-3-methyl-6,7-dihydro-5H-pyrrolo[3,4-b]pyridin-5-one] belongs 75 nM; to `Cc1cc2c(nc1N1CCC(OCCC3(C)CC3)CC1)CNC2=O` [Example 65A, 3-methyl-2-(4-(2-(1-methylcyclopropyl)ethoxy)piperidin-1-yl)-6,7-dihydro-5H-pyrrolo[3,4-b]pyridin-5-one], 164 nM.
To `Cc1cncc(OC2CCN(c3nc4c(cc3C)C(=O)NC4)CC2)c1` [Example 66, 3-Methyl-2-(4-((5-methylpyridin-3-yl)oxy)piperidin-1-yl)-6,7-dihydro-5H-pyrrolo[3,4-b]pyridin-5-one] belongs 84 nM; to `Cc1cc2c(nc1N1CCC(Oc3ccc4c(c3)C(=O)N(C)C4)CC1)CNC2=O` [Example 67, 3-methyl-2-(4-((2-methyl-3-oxoisoindolin-5-yl)oxy)piperidin-1-yl)-6,7-dihydro-5H-pyrrolo[3,4-b]pyridin-5-one], 136 nM.
Take `Cc1cc2c(nc1N1CCC(Oc3cccnc3)CC1)CNC2=O` [Example 68, 3-methyl-2-(4-(pyridin-3-yloxy)piperidin-1-yl)-6,7-dihydro-5H-pyrrolo[3,4-b]pyridin-5-one]: the EC50 turned out to be 79 nM.
For `Cc1nc2ccc(OC3CCN(c4nc5c(cc4C)C(=O)NC5)CC3)cc2o1` [Example 69, 3-methyl-2-(4-((2-methylbenzo[d]oxazol-6-yl)oxy)piperidin-1-yl)-6,7-dihydro-5H-pyrrolo[3,4-b]pyridin-5-one] the value was 88 nM; for `Cc1cc2c(nc1N1CCC(Oc3cnc4[nH]ccc4c3)CC1)CNC2=O` [Example 70, 2-(4-((1H-pyrrolo[2,3-b]pyridin-5-yl)oxy)piperidin-1-yl)-3-methyl-6,7-dihydro-5H-pyrrolo[3,4-b]pyridin-5-one], 79 nM.
With `Cc1cc2c(nc1N1CCC(Oc3cccc(F)c3)CC1)CNC2=O` [Example 71], the EC50 is 42 nM.
Take `Cc1cc2c(nc1N1CCC(Oc3ccc(F)cc3)CC1)CNC2=O` [Example 72, 2-(4-(4-fluorophenoxy)piperidin-1-yl)-3-methyl-6,7-dihydro-5H-pyrrolo[3,4-b]pyridin-5-one]: the EC50 came out at 30 nM.
